Patent US8969026B2, “Polymeric reverse micelles as selective extraction agents and related methods of MALDI-MS analysis” (University of Massachusetts, priority 2007, dated 2015)
Each block holds one molecule with its values, some of them ahead of it. No end group written: not given here.

Experiments:
[1] = Liquid-liquid extraction of pI markers by reverse micelles of homopolymer 3 in toluene, fluorescence of the aqueous phase; type: physicochemical; conditions: for extraction efficiency: aqueous pH 6.0, reverse micelles present in the toluene phase
Description: The polymeric reverse micelle-like nanoassemblies have carboxylate groups in their interiors; therefore, positively charged pI markers are expected to be extracted. Upon extraction, the concentrations of the pI markers left in the aqueous phase were quantitatively determined by fluorescence spectroscopy. Analysis of the organic phase was difficult because the fluorescence spectrum of the polymer is very broad in this phase, and in many cases overlaps with the signal from the pI markers. As an example of the data from the aqueous solution, the fluorescence spectra of pI marker 2, before (solid line) and after extraction (dashed line), are shown in FIG. 3. […] The concentration of the pI marker remaining in the aqueous phase can be quantified, and in this example, it is determined that 46% of pI marker 2 remains, which means that 54% of it is extracted into the organic phase when the aqueous solution pH is 1.9. It is not surprising that most of this compound is extracted under these conditions. This marker hag a pI value of 3.0, and at an aqueous solution pH of 1.9, most of this compound is positively charged and therefore interacts favorably with the negatively-charged interior of the polymeric reverse micelles.
(§1) A two-phase liquid-liquid extraction protocol that was previously developed was employed. […] The top (organic) layer was removed and the bottom (aqueous) layer was analyzed by fluorescence spectroscopy. […]
(§2) The amount of pI marker left in the bottom (aqueous) layer after extraction was determined on a Photon Technology International fluorometer (Ontario, Canada). Analysis of the organic phase was difficult because the fluorescence spectrum of the polymer in this phase was very broad, and in many cases overlapped with the signal from the pI markers. The excitation and emission wavelengths for each pI marker were chosen to maximize the fluorescence signal. […] For most of the pI markers, the fluorescence intensity was very low under more acidic conditions, making it difficult to collect data at these lower pHs. The fluorescence intensity of the aqueous phase after a given extraction was measured, and in each case the fluorescence intensity was used to determine the concentration of the pI marker remaining in the aqueous phase after the extraction. The amount of pI marker that was extracted by the reverse micelles was then calculated by subtracting the remaining aqueous phase concentration from the initial concentration (1×10^−6 M). The fluorescence measurements were repeated at least 3 times for each extracted sample and the average values are reported.

[2] = fluorescent pI markers, cited from earlier work
[3] = Control extraction of pI markers into toluene alone (no polymer); type: physicochemical; conditions: no reverse micelles / absence of polymer; pH independent
Method: Previously, it was shown for a series of peptides that charge complementarity exerts an important influence on the extraction process with these amphiphilic homopolymers. (See, M. Y. Combariza, E. N. Savariar, D. R. Vutukuri, S. Thayumanavan and R. W. Vachet, Anal. Chem. 2007, 79, 7124-7130.) Here, the importance of two other factors—hydrophobicity and aqueous solution pH—are assessed. Hydrophobicity might affect the extraction efficiency to some degree due to the toluene phase that surrounds the reverse micelles and the hydrocarbon functionality on the periphery of the reverse micelles. In order to investigate this effect, extractions of pI markers with different hydrophobicities were performed. As an example of the effect of hydrophobicity, the results from the extraction of two pI markers (4 and 7) at an aqueous phase pH of 6.0 are shown in FIG. 4. […]
as §1
as §2, with “The amount of pI marker that was extracted by the reverse micelles was then calculated by subtracting the remaining aqueous phase concentration from the initial concentration (1×10^−6 M). The fluorescence measurements were repeated at least 3 times for each extracted sample and the average values are reported.” left out

[4] = pH-dependent biphasic extraction of a peptide mixture with inverse micelles of polymer 1 in toluene, MALDI-MS ion abundance ratio; type: physicochemical; conditions: polymer 1 inverse micelles in toluene, K = Iorg/Iaq, [M+H]+ signal, [M+K]+ for spinorphin and β-amyloid, at least 4 replicates; for Ion abundance ratio (K ± sM) pH 4.0: aqueous pH 4.0; for Ion abundance ratio (K ± sM) pH 7.1: aqueous pH 7.1; for Ion abundance ratio (K ± sM) pH 9.0: aqueous pH 9.0
Description: The net charge within the inverse micelle of 1 is negative, affording a selective extraction of positively-charged peptides. In a typical experiment, a toluene solution containing 1 was mixed with an aqueous solution containing a mixture of peptides. After vortexing this mixture, the organic layer was separated and analyzed using MALDI-MS. […] Because the aqueous solution was buffered at a pH of 7.1, peptides with pI values above 7.1 were expected to be sequestered into the interior of the inverse micelles, while peptides with pI values below 7.1 would be mostly excluded based on Coulombic repulsion.
The ion abundance ratio is related to the extraction capacity of the polymer, and can be defined as the ratio of the MALDI ion abundance of the peptide in the organic phase that contains the inverse micelles (Iorg) to the ion abundance of the peptide remaining in the aqueous phase (Iaq) (K=Iorg/Iaq). These experiments were performed with the hypothesis that the extraction would be based on electrostatic interaction between the polymer and the peptide. To test this premise further, two control experiments were carried out. […] Therefore, a two-phase extraction experiment was done in the absence of homopolymer 1, and no peptide extraction into the organic phase was observed. Second, peptide extractions using a polymer without the negatively-charged functionality were performed. Polymer 2 contains charge-neutral pentaethyleneglycol functionalities instead of the carboxylic acid moieties. […] These two results are consistent with the hypothesis that the extraction is based on electrostatics.
Without limitation to any one theory or mode of operation, the pH of the overall aqueous solution is also likely to dictate the pH of the hydrated interiors of the inverse micelle where the binding takes place. Accordingly, extractions at three different pHs: 4.0, 7.1, and 9.0 were carried out; the results of these experiments are listed in Table 1. […] The results from experiments at pH 7.1 and 9.0 further support this idea. It should be noted that when the experiment is carried out at pH 9.0, the peptide with a pI of 7.7 is extracted to some extent. Such a result could be attributed to errors associated with aqueous solution pH measuring or to errors in the peptide pI calculation. Nonetheless, the tunability is still significant and therefore is a very useful result.
A Bruker Reflex III time-of-flight mass spectrometer was used to perform MALDI-MS analysis. The mass spectrometer is equipped with a 337-nm nitrogen laser, a 1.0 m flight tube, and a stainless steel sample target. All mass spectra were acquired in reflectron mode using a voltage of 16 kV. All reported spectra represent an average of 70 shots acquired at 30% laser power. The accelerating voltage was set to 20 kV.
A typical biphasic extraction procedure involves mixing 200 μL of a toluene solution of homopolymer 1 or 2 (1×10^−4 M) with 1 mL of an aqueous solution of peptide(s) that was buffered to pH ˜7.0 with 50 mM Tris/TrisHCl. The mixture is vortexed for 10 to 120 minutes and centrifuged at 12000 rpm for 30-40 minutes to break the resulting emulsion and separate the organic and aqueous layers. The top (organic) layer is then recovered and dried to obtain a solid residue. The residue is redissolved into 10 μL of THF and sonicated for 10 seconds to promote solubilization. Finally, 20 μL of an α-CHCA matrix solution (0.16 Min 60:40:0.3% THF:H2O:TFA) are added to the sample for a final volume of 30 μL. For MALDI-MS analysis the samples are applied to the target using the dried-droplet method, where 1 μL of the sample/matrix mixture is spotted on a stainless-steel target, and the solvent is evaporated at room temperature. The residual aqueous phase (˜1 mL) after extraction is also examined by MALDI-MS. […]

[5] = as above; type: physicochemical; conditions: extraction at pH 7.1 followed by extraction at pH 5.5, organic phase
[6] = Extraction of a peptide mixture by positively charged imidazole polymer 4 at pH 4.5, MALDI-MS; type: physicochemical; conditions: each peptide 1.0×10^−6 M
Description: Extraction of peptide mixture by positively charged polymer. Illustrating other embodiments of this invention, positively-charged polymers extract peptides with pI values below the aqueous solution pH. Without limitation, polymers with moieties comprising a positively charged nitrogenous group can be used with good effect. Representative of such embodiments, an imidazole-substituted polymer, 4, shown below, can be prepared using straight forward synthetic techniques of the sort described herein, and/or as are well-known to those skilled in the art.
At pH 4.5, kinetensin and angiotensin are positively-charged because the pH is below their pI values. […] FIG. 12C provides a mass spectrum of the aqueous phase after extraction at pH 4.5. The positively-charged peptides remain in the aqueous phase after extraction.

[7] = aqueous solution pH 1.9, polymer 3 reverse micelles in toluene

extraction efficiency [1]: 70±1.6% | percentage extracted into toluene alone [3]: 5.9±0.3%
Molecule: CN(C)CCCNC(=O)c1cc(Cl)ccc1O [pI marker 7]
Pka1 [2]: 6.80 | pI [2]: 8.1 | Pka ([2]; second pKa column): 9.30

Ion abundance ratio (K ± sM) pH 4.0 [4]: 36 ± 12 | Ion abundance ratio (K ± sM) pH 7.1 [4]: 2.0 ± 1.0 | Ion abundance ratio (K ± sM) pH 9.0 [4]: 1.0 ± 0.5 | extraction in the second step of the sequential extraction [5]: extracted into the organic layer
Molecule: LVVYPWT [Spinorphin, LVVYPWT]

The next lines start with the molecule.

Molecule: O=C(O)c1cc(Cl)ccc1NCCO [pI marker 2]
percentage extracted into the organic phase [1, 7]: 54% | percentage of pI marker remaining in the aqueous phase after extraction [1, 7]: 46% | pI [2]: 3.0 | percentage extracted into toluene alone [3]: about 6.6±0.6%

Molecule: EDVGSNKGAIIGLM (listed as Homo sapiens) [β-Amyloid, human peptide purchased from American Peptide Company]
Ion abundance ratio (K ± sM) pH 4.0 [4]: 17 ± 6 | Ion abundance ratio (K ± sM) pH 7.1 [4]: 0.4 ± 0.2 | Ion abundance ratio (K ± sM) pH 9.0 [4]: 0.10 ± 0.07 | extraction in the second step of the sequential extraction [5]: a small amount of β-amyloid was extracted

Molecule: O=C(CNc1ccccc1C(=O)O)NCCN1CCOCC1 [pI marker 4]
extraction efficiency [1]: 21.5±0.4% | pI [2]: 5.1 | percentage extracted into toluene alone [3]: 8.4±0.6%

Molecule: SSEVAGEGDGDSMGHEDLY (listed as Homo sapiens) [Preproenkephalin, human peptide purchased from American Peptide Company]
Ion abundance ratio (K ± sM) pH 4.0 [4]: 2.2 ± 0.9 | Ion abundance ratio (K ± sM) pH 7.1 [4]: 0.4 ± 0.1 | Ion abundance ratio (K ± sM) pH 9.0 [4]: 0.12 ± 0.04 | phase distribution after extraction [6]: a small percentage of the preproenkephalin is believed to remain in the aqueous phase
